# Test results: BindingDB's records for doi:10.7270/Q2639NCQ (The Scripps Research Institute Molecular Screening Center, 2013)
# Target: T1, Mitochondrial peptide methionine sulfoxide reductase (Bos taurus, UniProt P54149)
# T1 sequence (P54149 whole entry): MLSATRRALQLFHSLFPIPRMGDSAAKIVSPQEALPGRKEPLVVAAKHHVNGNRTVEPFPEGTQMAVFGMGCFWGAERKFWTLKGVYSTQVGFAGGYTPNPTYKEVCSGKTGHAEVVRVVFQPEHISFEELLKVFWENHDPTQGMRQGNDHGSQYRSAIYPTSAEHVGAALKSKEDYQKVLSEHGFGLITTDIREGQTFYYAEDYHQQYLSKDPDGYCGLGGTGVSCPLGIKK
row,Structure (SMILES),IC50 [µM]
1,"COc1cccc(/C=N/n2c(CO)nc3ccccc32)c1OC [[1-[(E)-(2,3-dimethoxyphenyl)methylideneamino]-2-benzimidazolyl]methanol]",> 155
2,"CCc1nccn1C(=O)c1cnn2c(C(F)F)cc(-c3ccc(C)cc3)nc12 [7-(difluoromethyl)-3-[(2-ethyl-1H-imidazol-1-yl)carbonyl]-5-(4-methylphenyl)pyrazolo[1,5-a]pyrimidine]",> 155
3,Cc1ccc(C)n1-n1c(C)nc2scc(-c3ccccc3)c2c1=O [MLS000564386],> 155
4,CC(C)(C)c1cc([N+](=O)[O-])cc(C(C)(C)C)c1O [MLS000755910],> 155
5,Cc1ccc(NC(=O)C2CCCO2)cc1[N+](=O)[O-] (stereo not drawn) [SMR000197718],> 155
6,CC(Sc1ncc(C(F)(F)F)cc1Cl)C(=O)NC(N)=O (stereo not drawn),> 155
7,O=c1cnn(-c2ccccc2)c(-c2ccccc2)c1 [SMR000060054],> 155
8,CCc1noc(C)c1C(=O)Nc1nc(-c2cc(C)ccc2C)c(C)s1 [MLS000324834],> 155
9,CCOc1cc(S(=O)(=O)NC2CC2)c(OCC)cc1-n1cnnn1 [SMR000123810],> 155
10,CC(=O)COc1ccc2c(-c3ccccc3)cc(=O)oc2c1C [8-methyl-7-(2-oxidanylidenepropoxy)-4-phenyl-chromen-2-one],> 155
11,O=C(O)c1cc(O)c2c(c1)C(=O)c1cccc(O)c1C2=O [RHEIN],> 155
12,CC(=N)C(C#N)C(=O)CSc1nn(-c2ccc(Cl)cc2)c(=S)s1 (stereo not drawn),> 155
13,O=C1N=C(N2C=CC(c3ccncc3)C=C2)C(=CN=NC(=O)c2ccccc2)S1,> 155
14,"CCCCCc1c(-c2cccc(OC)c2)ncn1CCc1ccccc1OC [4-(3-methoxyphenyl)-1-[2-(2-methoxyphenyl)ethyl]-5-pentyl-imidazole;2,2,2-tris(fluoranyl)ethanoic acid]",> 155
15,C#Cc1cccc(Nc2nc(NCc3ccccc3OC)nc3ccsc23)c1 [MLS003123009],> 155
16,c1ccc2c(c1)nc(-c1ccncc1)n1nnnc21 [SMR000060326],> 155
17,"COC(=O)N1[C@H](C)C=C[C@]1(Cc1ccccc1)C(=O)NCCCNc1ncc(C(F)(F)F)cc1Cl [(2R,5R)-5-[[3-[[3-chloro-5-(trifluoromethyl)-2-pyridinyl]amino]propylamino]-oxomethyl]-2-methyl-5-(phenylmethyl)-2H-pyrrole-1-carboxylic acid methyl ester]",> 155
18,"CCOC(=O)c1c(NC(=O)COC(=O)/C=C/c2ccco2)sc2c1CC(C)(C)NC2(C)C [2-[[2-[(E)-3-(2-furanyl)-1-oxoprop-2-enoxy]-1-oxoethyl]amino]-5,5,7,7-tetramethyl-4,6-dihydrothieno[2,3-c]pyridine-3-carboxylic acid ethyl ester]",> 155
19,"O=[N+]([O-])c1cc([N+](=O)[O-])c(N2CCOCC2)cc1NCc1ccccc1 [5-morpholin-4-yl-2,4-dinitro-N-(phenylmethyl)aniline]",> 155
20,Cc1c(OCC(N)=O)ccc2c(-c3ccccc3)cc(=O)oc12 [2-(8-methyl-2-oxidanylidene-4-phenyl-chromen-7-yl)oxyethanamide],> 155
21,Cc1nn(Cc2ccc(Cl)cc2)c(=O)n1N(C)c1ncc(C(F)(F)F)cc1Cl [MLS000541367],> 155
22,Cc1ccccc1-c1nc(C#N)c(N2CCCCC2)o1 [MLS001165046],> 155
23,"c1cnn(-c2cncc(-n3cccn3)n2)c1 [2,6-bis(1-pyrazolyl)pyrazine]",> 155
24,CC(Nc1cc(N2CCN(S(=O)(=O)N(C)C)CC2)ccc1[N+](=O)[O-])c1ccccc1 (stereo not drawn) [MLS000676463],> 155
25,"CCc1noc(C)c1C(=O)Nc1nc(-c2ccc(F)cc2)c(C)s1 [3-ethyl-N-[4-(4-fluorophenyl)-5-methyl-1,3-thiazol-2-yl]-5-methyl-1,2-oxazole-4-carboxamide]",> 155
26,COc1cccc2cc(-c3cc(=O)oc4ccc(O)cc34)oc12 [SMR000543646],> 155
27,O=C(c1ccco1)c1cc2c(ccc3ccccc32)oc1=O [2-(furan-2-ylcarbonyl)benzo[f]chromen-3-one],> 155

row,Structure (SMILES),IC50 [µM]
1,"O=C(NC=NOCc1ccc(Cl)cc1Cl)NOCc1ncc(C(F)(F)F)cc1Cl [1-[[3-chloro-5-(trifluoromethyl)-2-pyridinyl]methoxy]-3-[[(2,4-dichlorophenyl)methoxyamino]methylidene]urea]",> 155
2,N#Cc1c(N2CCCC2)ccc(Br)c1Cl [3-bromo-2-chloro-6-tetrahydro-1H-pyrrol-1-ylbenzonitrile],> 155
3,N#CC(C=Nc1ccccc1O)c1nc2ccccc2o1 (stereo not drawn) [SMR000171441],> 155
4,N#Cc1c(NCCCO)nc(-c2ccco2)c2c1CCCC2,> 155
5,"Cc1cc(OCC(=O)N2CCc3ccccc3C2)c2c(-c3ccccc3)cc(=O)oc2c1 [5-[2-(3,4-dihydro-2(1H)-isoquinolinyl)-2-oxoethoxy]-7-methyl-4-phenyl-2H-chromen-2-one]",> 155
6,O=C1C(=O)N(CCCn2ccnc2)C(c2cccc(Br)c2)C1C(=O)c1ccco1 (stereo not drawn) [2-(3-bromophenyl)-3-[2-furanyl(oxo)methyl]-4-hydroxy-1-[3-(1-imidazolyl)propyl]-2H-pyrrol-5-one],> 155
7,COc1ccc(CNC(=O)c2c(C)oc3c2C(=O)c2ccccc2C3=O)cc1,> 155
8,Cc1ccc(Nc2ccc(C(N)=O)cc2[N+](=O)[O-])cc1C [MLS000334544],> 155
9,Nc1nnc(CC(=O)N/N=C/c2ccc(-c3ccccc3)o2)s1,> 155
10,O=C1c2ccccc2C(=O)c2cc(S(=O)(=O)Nc3ccccc3)ccc21 [MLS000585519],> 155
11,N#Cc1c(-n2cccc2CN=O)sc2c1CCCC2 [SMR000009830],> 155
12,"CCOc1ccc(N(C)S(=O)(=O)c2cc(-c3cc(C)no3)ccc2C(C)C)cc1 [N-(4-ethoxyphenyl)-N-methyl-5-(3-methyl-1,2-oxazol-5-yl)-2-propan-2-yl-benzenesulfonamide]",> 155
13,"CC1=CC(=C(C#N)C#N)C=C(C)N1CCN1CCNCC1 [2-[2,6-dimethyl-1-(2-piperazin-1-ylethyl)pyridin-4-ylidene]propanedinitrile]",> 155
14,Cc1ccc(-c2cc(C(F)F)nc(N3CCOCC3)n2)cc1,> 155
15,Cc1ccc(Nc2ccc(C(F)(F)F)cc2[N+](=O)[O-])cc1,> 155
16,"COc1cc(C2C(C(=O)c3sc(C)nc3C)C(=O)C(=O)N2CCN(C)C)cc(OC)c1OC (stereo not drawn) [1-[2-(dimethylamino)ethyl]-3-[(2,4-dimethyl-5-thiazolyl)-oxomethyl]-4-hydroxy-2-(3,4,5-trimethoxyphenyl)-2H-pyrrol-5-one]",> 155
17,COc1ccc(-c2cc(C(F)F)n3ncc(C(=O)n4ccnc4C)c3n2)cc1 [MLS000581677],> 155
18,CCOc1ccc(N(C)S(=O)(=O)c2cc(-c3cc(C)no3)ccc2C)cc1 [SMR000630369],> 155
19,"Cc1ccnc(N2C(=O)c3cccc4c([N+](=O)[O-])ccc(c34)C2=O)c1 [2-(4-Methyl-pyridin-2-yl)-6-nitro-benzo[de]isoquinoline-1,3-dione]",> 155
20,"c1ccc2c(c1)nc(N1CCOCC1)c1nnnn12 [4-(4-tetrazolo[1,5-a]quinoxalinyl)morpholine]",> 155
21,Cc1cc(OC(C)C)c2c(-c3ccccc3)cc(=O)oc2c1 [SMR000141385],> 155
22,COc1cccc(Nc2nc3cc(OC)ccc3cc2C#N)c1 [7-methoxy-2-(3-methoxyanilino)-3-quinolinecarbonitrile],> 155
23,Cc1ccc(-c2csc3nc(C)n(-n4c(C)ccc4C)c(=O)c23)o1 [SMR000061692],> 155
24,"CC(=O)c1cccc(Oc2cc(NN3CCCCC3)c([N+](=O)[O-])cc2[N+](=O)[O-])c1 [1-[3-[2,4-dinitro-5-(1-piperidinylamino)phenoxy]phenyl]ethanone]",> 155
25,Cc1ccccc1Nc1ncnc2n[nH]cc12 [SMR001556847],> 155
26,FC(F)(F)c1ccc(/N=C/c2sc(N3CCOCC3)nc2-c2ccccc2)cc1 [SMR000260329],> 155
